From patent publication US20260285880A1, “SUBSTITUTED DIHYDROTHIENOPYRIMIDINE COMPOUND, PREPARATION METHOD THEREFOR, AND USE THEREOF” (SHANGHAI YIDI BIOTECHNOLOGY CO., LTD., priority 2023, published 2026)

Columns and labels:
PDE4D2 = PDE4D2 (Homo sapiens, UniProt Q08499); assay: PDE4D2 enzyme experiment (AMP-Glo); settings: read-out: PDE4D2 IC50 Binding; enzyme assay
Flpin-293-PDE4B2 cells = Flpin-293-PDE4B2 cells (Homo sapiens, UniProt Q07343); assay: cell-based; settings: for inhibition at 0.001 µM: read-out: Cell Inhibition % @1 nM, 1 nM, Flpin-293-PDE4B2 cells; for inhibition at 0.01 µM: read-out: Cell Inhibition % @10 nM, 10 nM, Flpin-293-PDE4B2 cells; for inhibition at 0.1 µM: read-out: Cell Inhibition % @100 nM, 100 nM, Flpin-293-PDE4B2 cells
Sequence of Flpin-293-PDE4B2 cells (Q07343 1-564 isoform Q07343-2): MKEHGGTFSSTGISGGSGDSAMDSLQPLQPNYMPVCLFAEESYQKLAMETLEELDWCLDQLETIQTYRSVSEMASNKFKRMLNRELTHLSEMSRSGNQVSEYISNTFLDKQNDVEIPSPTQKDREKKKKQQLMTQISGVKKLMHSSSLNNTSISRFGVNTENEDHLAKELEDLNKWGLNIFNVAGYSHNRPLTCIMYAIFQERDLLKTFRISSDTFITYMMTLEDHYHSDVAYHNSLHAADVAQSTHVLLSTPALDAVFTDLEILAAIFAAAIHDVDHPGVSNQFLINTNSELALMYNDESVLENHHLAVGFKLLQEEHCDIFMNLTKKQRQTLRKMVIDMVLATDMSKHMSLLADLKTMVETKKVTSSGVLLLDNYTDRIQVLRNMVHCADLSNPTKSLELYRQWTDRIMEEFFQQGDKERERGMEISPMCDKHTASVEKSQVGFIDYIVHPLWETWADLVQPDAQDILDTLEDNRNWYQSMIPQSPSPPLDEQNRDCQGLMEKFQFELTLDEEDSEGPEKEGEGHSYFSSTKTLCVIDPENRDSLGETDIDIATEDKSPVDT

PDE4B2 = PDE4B2 (Homo sapiens, UniProt Q07343); settings: read-out: PDE4B2 IC50; enzyme assay
Sequence of PDE4B2 (Q07343 1-564 isoform Q07343-2, species assumed): as the sequence (Q07343 1-564 isoform Q07343-2) above

Sequence of PDE4D2 (Q08499 303-809 limits assumed): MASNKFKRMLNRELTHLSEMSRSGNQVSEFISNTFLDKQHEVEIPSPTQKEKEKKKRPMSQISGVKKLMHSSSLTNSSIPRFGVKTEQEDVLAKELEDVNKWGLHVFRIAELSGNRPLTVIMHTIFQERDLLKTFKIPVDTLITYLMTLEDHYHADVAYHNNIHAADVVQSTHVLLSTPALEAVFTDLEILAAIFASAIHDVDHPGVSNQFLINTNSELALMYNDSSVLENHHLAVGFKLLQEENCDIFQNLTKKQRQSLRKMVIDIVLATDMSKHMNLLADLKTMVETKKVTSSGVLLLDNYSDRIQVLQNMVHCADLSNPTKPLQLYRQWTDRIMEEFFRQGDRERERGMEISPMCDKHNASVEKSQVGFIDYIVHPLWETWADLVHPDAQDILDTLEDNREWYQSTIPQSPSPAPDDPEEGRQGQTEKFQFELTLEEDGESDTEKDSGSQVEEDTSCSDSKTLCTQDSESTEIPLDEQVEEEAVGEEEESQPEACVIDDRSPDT

CN(C)c1ccc2c(c1)CCN(c1nc3c(c(NC4(CO)CCC4)n1)[S+]([O-])CC3)C2 (stereo not drawn) [Compound 126]
IC50 (PDE4D2): 1.64 nM | inhibition at 0.001 µM (Flpin-293-PDE4B2 cells): 19.8% | inhibition at 0.01 µM (Flpin-293-PDE4B2 cells): 77.4% | inhibition at 0.1 µM (Flpin-293-PDE4B2 cells): 100% | IC50 (PDE4B2): 0.951 nM

Cn1cc(CNc2nc(N3CCc4cc(Cl)ccc4C3)nc3c2[S+]([O-])CC3)cn1 (stereo not drawn) [Compound 142]
IC50 (PDE4D2): 2.27 nM | inhibition at 0.001 µM (Flpin-293-PDE4B2 cells): 6.79% | inhibition at 0.01 µM (Flpin-293-PDE4B2 cells): 34.8% | inhibition at 0.1 µM (Flpin-293-PDE4B2 cells): 94.4% | IC50 (PDE4B2): 0.837 nM

[O-][S+]1CCc2nc(N3CCc4cc(N5CCCC5)ccc4C3)nc(NC3(CO)CC3)c21 (stereo not drawn) [Compound 186]
IC50 (PDE4D2): 0.155 nM | inhibition at 0.001 µM (Flpin-293-PDE4B2 cells): 24.7% | inhibition at 0.01 µM (Flpin-293-PDE4B2 cells): 93.2% | inhibition at 0.1 µM (Flpin-293-PDE4B2 cells): 101% | IC50 (PDE4B2): 0.0646 nM

[O-][S+]1CCc2nc(N3CCc4cc(N5CCCC5)ccc4C3)nc(Nc3cnn(CCO)c3)c21 (stereo not drawn) [Compound 191]
IC50 (PDE4D2): 0.851 nM | inhibition at 0.001 µM (Flpin-293-PDE4B2 cells): 8.9% | inhibition at 0.01 µM (Flpin-293-PDE4B2 cells): 35.2% | inhibition at 0.1 µM (Flpin-293-PDE4B2 cells): 94.3% | IC50 (PDE4B2): 0.182 nM

C[C@H]1c2ccc(N3CCCC3)cc2CCN1c1nc2c(c(NC3(CO)COC3)n1)[S+]([O-])CC2 (stereo partly drawn) [Compound 200]
IC50 (PDE4D2): 0.119 nM | inhibition at 0.001 µM (Flpin-293-PDE4B2 cells): 14.7% | inhibition at 0.01 µM (Flpin-293-PDE4B2 cells): 74.4% | inhibition at 0.1 µM (Flpin-293-PDE4B2 cells): 99.9% | IC50 (PDE4B2): 0.117 nM

C[C@H]1c2ccc(N3CCCC3)cc2CCN1c1nc2c(c(NC3(CO)CCOCC3)n1)[S+]([O-])CC2 (stereo partly drawn) [Compound 212]
IC50 (PDE4D2): 1.25 nM | inhibition at 0.001 µM (Flpin-293-PDE4B2 cells): 3.24% | inhibition at 0.01 µM (Flpin-293-PDE4B2 cells): 34.6% | inhibition at 0.1 µM (Flpin-293-PDE4B2 cells): 97.5% | IC50 (PDE4B2): 0.945 nM

CN1CC(Nc2nc(N3CCc4cc(Cl)ccc4C3)nc3c2[S+]([O-])CC3)CCC1=O (stereo not drawn) [Compound 136]
IC50 (PDE4D2): 0.0825 nM | inhibition at 0.001 µM (Flpin-293-PDE4B2 cells): 48.1% | inhibition at 0.01 µM (Flpin-293-PDE4B2 cells): 98.3% | inhibition at 0.1 µM (Flpin-293-PDE4B2 cells): 101% | IC50 (PDE4B2): 0.0407 nM

C[C@H]1c2ccc(N3CCCC3)cc2CCN1c1nc2c(c(N[C@@H]3CC[C@H]3O)n1)[S+]([O-])CC2 (stereo partly drawn) [Compound 201]
IC50 (PDE4D2): 0.596 nM | inhibition at 0.001 µM (Flpin-293-PDE4B2 cells): 7.33% | inhibition at 0.01 µM (Flpin-293-PDE4B2 cells): 72.3% | inhibition at 0.1 µM (Flpin-293-PDE4B2 cells): 99.9% | IC50 (PDE4B2): 0.194 nM

[O-][S+]1CCc2nc(N3CCc4cc(N5CC[C@@H](O)C5)ccc4C3)nc(NC3(CO)CCC3)c21 (stereo partly drawn) [Compound 130]
IC50 (PDE4D2): 0.59 nM | inhibition at 0.001 µM (Flpin-293-PDE4B2 cells): 11.8% | inhibition at 0.01 µM (Flpin-293-PDE4B2 cells): 57.9% | inhibition at 0.1 µM (Flpin-293-PDE4B2 cells): 100% | IC50 (PDE4B2): 0.297 nM

[O-][S+]1CCc2nc(N3CCc4cc(N5CC6CC5C6)ccc4C3)nc(NC3(CO)CCC3)c21 (stereo not drawn) [Compound 177]
IC50 (PDE4D2): 0.502 nM | inhibition at 0.001 µM (Flpin-293-PDE4B2 cells): 7.25% | inhibition at 0.01 µM (Flpin-293-PDE4B2 cells): 53.3% | inhibition at 0.1 µM (Flpin-293-PDE4B2 cells): 98.6% | IC50 (PDE4B2): 0.508 nM

CO[C@H]1CCN(c2ccc3c(c2)CCN(c2nc4c(c(NC5(CO)CCC5)n2)[S+]([O-])CC4)C3)C1 (stereo partly drawn) [Compound 151]
IC50 (PDE4D2): 0.655 nM | inhibition at 0.001 µM (Flpin-293-PDE4B2 cells): 7.66% | inhibition at 0.01 µM (Flpin-293-PDE4B2 cells): 56.5% | inhibition at 0.1 µM (Flpin-293-PDE4B2 cells): 99.1% | IC50 (PDE4B2): 0.298 nM

[O-][S+]1CCc2nc(N3CCc4cc(N5CCCC5)ccc4C3)nc(Nc3cn[nH]c3)c21 (stereo not drawn) [Compound 194]
IC50 (PDE4D2): 1.08 nM | inhibition at 0.001 µM (Flpin-293-PDE4B2 cells): 4.28% | inhibition at 0.01 µM (Flpin-293-PDE4B2 cells): 33.6% | inhibition at 0.1 µM (Flpin-293-PDE4B2 cells): 92.9% | IC50 (PDE4B2): 0.333 nM

CN1CCN(c2ccc3c(c2)CCN(c2nc4c(c(NC5(CO)CCC5)n2)[S+]([O-])CC4)C3)CC1 (stereo not drawn) [Compound 170]
IC50 (PDE4D2): 1.29 nM | inhibition at 0.001 µM (Flpin-293-PDE4B2 cells): 1.97% | inhibition at 0.01 µM (Flpin-293-PDE4B2 cells): 26.7% | inhibition at 0.1 µM (Flpin-293-PDE4B2 cells): 86.9% | IC50 (PDE4B2): 0.729 nM

CO[C@@H]1CCN(c2ccc3c(c2)CCN(c2nc4c(c(NC5(CO)CCC5)n2)[S+]([O-])CC4)C3)C1 (stereo partly drawn) [Compound 152]
IC50 (PDE4D2): 0.748 nM | inhibition at 0.001 µM (Flpin-293-PDE4B2 cells): 16.1% | inhibition at 0.01 µM (Flpin-293-PDE4B2 cells): 66% | inhibition at 0.1 µM (Flpin-293-PDE4B2 cells): 99.2% | IC50 (PDE4B2): 0.426 nM

CN1C[C@@H](Nc2nc(N3CCc4cc(N5CCCC5)ccc4C3)nc3c2[S+]([O-])CC3)CCC1=O (stereo partly drawn) [Compound 185]
IC50 (PDE4D2): 0.0263 nM | inhibition at 0.001 µM (Flpin-293-PDE4B2 cells): 75.3% | inhibition at 0.01 µM (Flpin-293-PDE4B2 cells): 100% | inhibition at 0.1 µM (Flpin-293-PDE4B2 cells): 101% | IC50 (PDE4B2): 0.0251 nM

C[C@H]1CCCN1c1ccc2c(c1)CCN(c1nc3c(c(NC4(CO)CCC4)n1)[S+]([O-])CC3)C2 (stereo partly drawn) [Compound 134]
IC50 (PDE4D2): 0.24 nM | inhibition at 0.001 µM (Flpin-293-PDE4B2 cells): 19.2% | inhibition at 0.01 µM (Flpin-293-PDE4B2 cells): 86.8% | inhibition at 0.1 µM (Flpin-293-PDE4B2 cells): 101% | IC50 (PDE4B2): 0.098 nM

C[C@H]1CCN1c1ccc2c(c1)CCN(c1nc3c(c(NC4(CO)CCC4)n1)[S+]([O-])CC3)C2 (stereo partly drawn) [Compound 176]
IC50 (PDE4D2): 0.716 nM | inhibition at 0.001 µM (Flpin-293-PDE4B2 cells): 6.1% | inhibition at 0.01 µM (Flpin-293-PDE4B2 cells): 51.5% | inhibition at 0.1 µM (Flpin-293-PDE4B2 cells): 97.8% | IC50 (PDE4B2): 0.607 nM

[O-][S+]1CCc2nc(N3CCc4cc(N5CC6COCC6C5)ccc4C3)nc(NC3(CO)CCC3)c21 (stereo not drawn) [Compound 154]
IC50 (PDE4D2): 0.279 nM | inhibition at 0.001 µM (Flpin-293-PDE4B2 cells): 26.5% | inhibition at 0.01 µM (Flpin-293-PDE4B2 cells): 91% | inhibition at 0.1 µM (Flpin-293-PDE4B2 cells): 99.7% | IC50 (PDE4B2): 0.138 nM
